# According to patent US20260337182A1, “COMPOUNDS AND COMPOSITIONS USEFUL AS INHIBITORS OF IAPs” (Tract Pharmaceuticals, Inc., priority 2022, published 2026):
# How the values were obtained:
# [1] = test system: esophageal adenocarcinoma stem cells; assay: percent survival of esophageal adenocarcinoma stem cells; format: cell-based, human; conditions: FIG. 2; versus other IAP inhibitors of Table 1
# From the text: FIG. 2 depicts treatment of esophageal adenocarcinoma stem cells with compounds described herein. The concentration of the compound used and percent survival of the cells is provided.
# FIG. 6 depicts treatment of Barrett's low grade dysplasia and esophageal adenocarcinoma with compound I-1. FIG. 6A depicts the % survival of Barrett's low grade dysplasia stem cells at higher concentration of compound I-1. FIG. 6B depicts the % survival of Barrett's low grade dysplasia stem cells at lower concentration of compound I-1. FIG. 6C depicts the % survival of esophageal adenocarcinoma stem cells at higher concentration of compound I-1. […]
# (§1) The present example describes methods used for testing the efficacy of compounds described herein. […] Single cell-derived clones are generated by single cell FACS sorting to 384 well plates and wells with individual colonies are expanded, analyzed by molecular genetics, and grown as discrete clones.
# (§2) Approximately 400,000 cells from discrete clones relevant to particular disease states (cancer, chronic inflammatory disease) are plated into 384 plates previously seeded with irradiated feeder cells, allowed to grow for 5 days, and then exposed to the test compounds in a serial dilution format. […] Human cell numbers are quantified via high-throughput imaging technology (CellInsight CX7 LED, Thermo), and data analyzed by Excel.
# [2] = test system: advanced Barrett's esophagus stem cells; assay: percent survival of advanced Barrett's esophagus stem cells; format: cell-based, human
# From the text: FIG. 4 depicts treatment of advanced Barrett's esophagus stem cells with compound I-1 in cells isolated from two different patients. FIG. 4A depicts the % survival of Barrett's esophagus stem cells from a first patient at higher concentration of compound I-1. FIG. 4B depicts the % survival of Barrett's esophagus cells from a first patient at lower concentration of compound I-1. FIG. 4C depicts the % survival of Barrett's esophagus cells from a second patient at higher concentration of compound I-1. FIG. 4D depicts the % survival of Barrett's esophagus stem cells from a second patient at lower concentration of compound I-1.
# FIG. 7 depicts treatment of various diseases with compounds I-2 and I-5. FIG. 7A depicts % survival of diffused gastric adenocarcinoma with ascites cells with varying concentrations of compounds I-2 and I-5. FIG. 7B depicts % survival of advanced Barret's cells with varying concentrations of compounds I-2 and I-5. FIG. 7C depicts % survival of high-grade serous ovarian cancer cells with varying concentrations of compounds I-2 and I-5. […]
# as §1, with “clones. […]” for “clones.”
# [3] = test system: Barrett's low grade dysplasia stem cells; assay: percent survival of Barrett's low grade dysplasia stem cells; format: cell-based, human; conditions: FIG. 6A, 6B
# From the text: FIG. 6 depicts treatment of Barrett's low grade dysplasia and esophageal adenocarcinoma with compound I-1. FIG. 6A depicts the % survival of Barrett's low grade dysplasia stem cells at higher concentration of compound I-1. FIG. 6B depicts the % survival of Barrett's low grade dysplasia stem cells at lower concentration of compound I-1. FIG. 6C depicts the % survival of esophageal adenocarcinoma stem cells at higher concentration of compound I-1. FIG. 6D depicts the % survival of esophageal adenocarcinoma cells at lower concentration of compound I-1.
# (§3) FIG. 8 depicts treatment of Barrett's low grade dysplasia and high grade dysplasia with compounds I-1; I-2; I-6; and I-3. […]
# as §1, §2
# [4] = test system: Barrett's high grade dysplasia stem cells; assay: percent survival of Barrett's high grade dysplasia stem cells; format: cell-based, human; conditions: FIG. 5A, 5B
# From the text: FIG. 5 depicts treatment of Barrett's high grade dysplasia and diffuse gastric cancer with compound I-1. FIG. 5A depicts the % survival of Barrett's high grade dysplasia stem cells at higher concentration of compound I-1. FIG. 5B depicts the % survival of Barrett's high grade dysplasia stem cells at lower concentration of compound I-1. FIG. 5C depicts the % survival of diffuse gastric cancer stem cells at higher concentration of compound I-1. FIG. 5D depicts the % survival of diffuse gastric cancer stem cells at lower concentration of compound I-1.
# as §3, §1, §2
# [5] = test system: Barrett's esophagus cells; assay: percent survival of Barrett's esophagus cells; format: cell-based, human; conditions: FIG. 1; for sensitivity of Barrett's esophagus cells compared to the other compounds of Table 1: versus other IAP inhibitors of Table 1
# Experimental: FIG. 1 depicts treatment of Barrett's esophagus cells with compounds described herein. The concentration of the compound used and percent survival of the cells is provided.
# Cells isolated from individuals diagnosed with or suffering from Barrett's esophagus were treated with the indicated compounds.
# (§4) The present example describes methods used for testing the efficacy of compounds described herein. The selective growth of stem cells of cancers, of their precursor lesions, and of normal and chronically diseased epithelial tissues is described in the references below. In brief, biopsied tissues are reduced to single cell suspensions and plated onto lawns of irradiated 3T3-J2 feeder cells in specialized StemEcho media and libraries of colonies are evident in 7-10 days. Single cell-derived clones are generated by single cell FACS sorting to 384 well plates and wells with individual colonies are expanded, analyzed by molecular genetics, and grown as discrete clones.
# (§5) Approximately 400,000 cells from discrete clones relevant to particular disease states (cancer, chronic inflammatory disease) are plated into 384 plates previously seeded with irradiated feeder cells, allowed to grow for 5 days, and then exposed to the test compounds in a serial dilution format. After 2-5 days, the cells are fixed using paraformaldehyde and the human cells are labelled with human-specific antibodies followed by fluorochrome-labelled secondary antibodies. Human cell numbers are quantified via high-throughput imaging technology (CellInsight CX7 LED, Thermo), and data analyzed by Excel.
# [6] = test system: lung adenocarcinoma stem cells; assay: percent survival of lung adenocarcinoma stem cells; format: cell-based, human; conditions: FIG. 3A, 3B
# Experimental: FIG. 3 depicts treatment of lung adenocarcinoma stem cells with compound I-1. FIG. 3A depicts the % survival of lung adenocarcinoma stem cells at higher concentration of compound I-1. FIG. 3B depicts the % survival of lung adenocarcinoma stem cells at lower concentration of compound I-1.
# Specifically, lung adenocarcinoma stem cells from an additional individual were tested and treated at higher (nM) or low (pM) concentrations of I-1 (FIG. 3A and FIG. 3B).
# as §4, with “In brief, biopsied tissues are reduced to single cell suspensions and plated onto lawns of irradiated 3T3-J2 feeder cells in specialized StemEcho media and libraries of colonies are evident in 7-10 days.” left out
# as §2
# [7] = test system: gastric cancer stem cells; assay: percent survival of (diffuse) gastric cancer stem cells; format: cell-based, human; conditions: two individuals with diffuse gastric cancer; FIG. 7A, 7D
# From the text: FIG. 7 depicts treatment of various diseases with compounds I-2 and I-5. FIG. 7A depicts % survival of diffused gastric adenocarcinoma with ascites cells with varying concentrations of compounds I-2 and I-5. FIG. 7B depicts % survival of advanced Barret's cells with varying concentrations of compounds I-2 and I-5. FIG. 7C depicts % survival of high-grade serous ovarian cancer cells with varying concentrations of compounds I-2 and I-5. FIG. 7D depicts % survival of gastric cancer with varying concentrations of compounds I-2 and I-5. FIG. 7E depicts % survival taxol resistant ovarian cancer stem cells with varying concentrations of compounds I-2 and I-5. […]
# as §1, §2
# [8] = test system: pancreatic cancer stem cells; assay: percent survival of pancreatic cancer stem cells; format: cell-based, human; conditions: varying concentrations; FIG. 9
# From the text: FIG. 9 depicts treatment of pancreatic cancer with compounds I-9, I-10; I-3; I-11. FIG. 9 depicts the % survival of pancreatic cancer stem cells at varying concentrations of I-9; I-10; I-3; I-11.
# as §4, §5
# cIAP1 = conditions: inhibits cIAP1; cited from earlier work
compound,measurement,setting,value
CN[C@@H](C)C(=O)N[C@H](C(=O)N1CCC[C@H]1C(=O)N[C@H]1c2ccccc2C[C@H]1OCCOCCNc1c(NCCOCCO[C@@H]2Cc3ccccc3[C@@H]2NC(=O)[C@@H]2CCCN2C(=O)[C@@H](NC(=O)[C@H](C)NC)C2CCCCC2)c(=O)c1=O)C1CCCCC1 [I-1],sensitivity of esophageal adenocarcinoma stem cells compared to the other compounds of Table 1,[1],significantly more sensitive
same,sensitivity of advanced Barrett's esophagus stem cells,"[2]; two individuals, higher (nM) or low (pM) concentrations, FIG. 4A-4D",demonstrates the sensitivity
same,sensitivity of Barrett's low grade dysplasia stem cells,[3],sensitive
same,sensitivity of Barrett's high grade dysplasia stem cells,[4],sensitive
same,sensitivity of Barrett's esophagus cells,[5],particularly sensitive
same,sensitivity of Barrett's esophagus cells compared to the other compounds of Table 1,[5],significantly more sensitive
same,sensitivity of lung adenocarcinoma stem cells,[6]; higher (nM) or low (pM) concentrations,demonstrate the sensitivity
same,lethality compared with another highly potent cytotoxic treatment,[6]; higher and lower concentration,comparable lethality to another highly potent cytotoxic treatment
CN[C@@H](C)C(=O)N[C@H](C(=O)N1CCC[C@H]1C(=O)N[C@H]1c2ccccc2C[C@H]1OCCNc1c(NCCO[C@@H]2Cc3ccccc3[C@@H]2NC(=O)[C@@H]2CCCN2C(=O)[C@@H](NC(=O)[C@H](C)NC)C2CCCCC2)c(=O)c1=O)C1CCCCC1 [I-2],sensitivity of esophageal adenocarcinoma stem cells compared to the other compounds of Table 1,[1],significantly more sensitive
same,sensitivity of advanced Barrett's esophagus stem cells,"[2]; additional individual, varying concentrations, FIG. 7B",notably sensitive
same,sensitivity of gastric cancer stem cells,[7],sensitive
same,sensitivity of Barrett's esophagus cells,[5],particularly sensitive
same,sensitivity of Barrett's esophagus cells compared to the other compounds of Table 1,[5],significantly more sensitive
CN[C@@H](C)C(=O)N[C@H](C(=O)N1CCC[C@H]1C(=O)N[C@H]1c2ccccc2C[C@H]1OCCCCCNc1c(NCCCCCO[C@@H]2Cc3ccccc3[C@@H]2NC(=O)[C@@H]2CCCN2C(=O)[C@@H](NC(=O)[C@H](C)NC)C2CCCCC2)c(=O)c1=O)C1CCCCC1 [I-3],sensitivity of pancreatic cancer stem cells,[8],sensitive
CN[C@@H](C)C(=O)N[C@H](C(=O)N1CCC[C@H]1C(=O)N[C@H]1c2ccccc2C[C@H]1OCCCNc1c(NCCCO[C@@H]2Cc3ccccc3[C@@H]2NC(=O)[C@@H]2CCCN2C(=O)[C@@H](NC(=O)[C@H](C)NC)C2CCCCC2)c(=O)c1=O)C1CCCCC1 [I-9],sensitivity of pancreatic cancer stem cells,[8],sensitive
CN[C@@H](C)C(=O)N[C@H](C(=O)N1CCC[C@H]1C(=O)N[C@H]1c2ccccc2C[C@H]1OCCCCNc1c(NCCCCO[C@@H]2Cc3ccccc3[C@@H]2NC(=O)[C@@H]2CCCN2C(=O)[C@@H](NC(=O)[C@H](C)NC)C2CCCCC2)c(=O)c1=O)C1CCCCC1 [I-10],sensitivity of pancreatic cancer stem cells,[8],sensitive
CN[C@@H](C)C(=O)N[C@H](C(=O)N1CCC[C@H]1C(=O)N[C@H]1c2ccccc2C[C@H]1OCCCCCCNc1c(NCCCCCCO[C@@H]2Cc3ccccc3[C@@H]2NC(=O)[C@@H]2CCCN2C(=O)[C@@H](NC(=O)[C@H](C)NC)C2CCCCC2)c(=O)c1=O)C1CCCCC1 [I-11],sensitivity of pancreatic cancer stem cells,[8],sensitive
CN[C@@H](C)C(=O)N[C@H](C(=O)N1CCC[C@H]1c1nc(C(=O)c2ccc(F)cc2)cs1)C1CCCCC1 [LCL 161],IC50,cIAP1,0.4 nM
